The values that follow come from ChEMBL document CHEMBL3813680, “Discovery of a 2-hydroxyacetophenone derivative as an outstanding linker to enhance potency and β-selectivity of liver X receptor agonist” (Bioorg Med Chem, 2016).

In series [1] the test system is Mus musculus. The experiment in a line: Antiatherosclerosis activity in LDL receptor knock out mouse model assessed as increase in TC levels at 3 mg/kg, po by HPLC analysis relative to control. The class given is functional.
Series [2] in a line: AUC in mouse plasma at 10 mg/kg, po measured up to 24 hrs by HPLC-LC-MS/MS analysis. The class given is ADME, organism-based. Further details: time < 24 hr, dose 10 mg/kg, route oral.
The test system of series [3] is Mus musculus. The experiment in a line: Antiatherosclerosis activity in LDL receptor knock out mouse model assessed as decrease in LDL-C levels at 3 mg/kg, po by HPLC analysis relative to control. Type of series: functional. Further details: scale not given: the % may be the effect or the level left.
The test system of series [4] is Mus musculus. Put plainly: Antiatherosclerosis activity in LDL receptor knock out mouse model assessed as decrease in area of lipid accumulation at 3 mg/kg, po by HPLC analysis relative to control. Type of series: functional. Further details: scale not given: the % may be the effect or the level left.
Series [5] relates to Mus musculus. Put plainly: Upregulation of ABCA1 mRNA expression in LDL receptor knock-out mouse blood at 3 mg/kg, po relative to control. Type of series: functional.
A short description of series [6]: Cmax in mouse plasma at 10 mg/kg, po measured up to 24 hrs by HPLC-LC-MS/MS analysis. Further details: dose 10 mg/kg, route oral. Type of series: ADME, organism-based.
For series [7], the system named is Mus musculus. Put plainly: Antiatherosclerosis activity in LDL receptor knock out mouse model assessed as increase in HDL-C levels at 1 mg/kg, po by HPLC analysis relative to control. Type of series: functional.
Series [8] addresses T1, Oxysterols receptor LXR-beta (Homo sapiens, UniProt P55055).
T1 sequence (P55055 whole entry): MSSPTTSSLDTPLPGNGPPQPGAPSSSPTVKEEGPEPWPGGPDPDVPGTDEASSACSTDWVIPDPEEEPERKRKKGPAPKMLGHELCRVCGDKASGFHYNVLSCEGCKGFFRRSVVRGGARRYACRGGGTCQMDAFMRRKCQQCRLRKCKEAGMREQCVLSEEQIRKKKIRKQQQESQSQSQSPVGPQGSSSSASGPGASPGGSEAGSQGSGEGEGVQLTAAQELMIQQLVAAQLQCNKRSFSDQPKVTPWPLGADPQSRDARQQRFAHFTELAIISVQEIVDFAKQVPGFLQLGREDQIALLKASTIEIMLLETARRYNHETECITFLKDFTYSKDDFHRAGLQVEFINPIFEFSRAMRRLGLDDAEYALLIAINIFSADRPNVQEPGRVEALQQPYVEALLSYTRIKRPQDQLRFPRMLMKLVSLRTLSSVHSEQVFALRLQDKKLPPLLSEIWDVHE
The experiment in a line: Agonist activity at GAL4 fused LXRbeta-LBD (unknown origin) transfected in CHOK1 cells after 24 hrs by luciferase reporter gene assay. For orientation: In a reporter assay the amount or activity of a reporter protein is the signal.

For series [9], the system named is Mus musculus. The experiment in a line: Antiatherosclerosis activity in LDL receptor knock out mouse model assessed as LDL-C levels at 1 mg/kg, po by HPLC analysis relative to control. The class given is functional.
The test system of series [10] is Mus musculus. Put plainly: Antiatherosclerosis activity in LDL receptor knock out mouse model assessed as decrease in area of lipid accumulation at 1 mg/kg, po by HPLC analysis relative to control. Also on record: scale not given: the % may be the effect or the level left. The class given is functional.
The subject of series [11] is Mus musculus. The experiment in a line: Upregulation of ABCA1 mRNA expression in LDL receptor knock-out mouse blood at 1 mg/kg, po relative to control. The class given is functional.
For series [12], the system named is Mus musculus. The experiment in a line: Antiatherosclerosis activity in LDL receptor knock out mouse model assessed as increase in HDL-C levels at 3 mg/kg, po by HPLC analysis relative to control. Type of series: functional.
The test system of series [13] is Mus musculus. Put plainly: Antiatherosclerosis activity in LDL receptor knock out mouse model assessed as increase in TC levels at 1 mg/kg, po by HPLC analysis relative to control. Type of series: functional.
In series [14] the target is T2, Oxysterols receptor LXR-alpha (Homo sapiens, UniProt Q13133).
T2 sequence (Q13133 whole entry): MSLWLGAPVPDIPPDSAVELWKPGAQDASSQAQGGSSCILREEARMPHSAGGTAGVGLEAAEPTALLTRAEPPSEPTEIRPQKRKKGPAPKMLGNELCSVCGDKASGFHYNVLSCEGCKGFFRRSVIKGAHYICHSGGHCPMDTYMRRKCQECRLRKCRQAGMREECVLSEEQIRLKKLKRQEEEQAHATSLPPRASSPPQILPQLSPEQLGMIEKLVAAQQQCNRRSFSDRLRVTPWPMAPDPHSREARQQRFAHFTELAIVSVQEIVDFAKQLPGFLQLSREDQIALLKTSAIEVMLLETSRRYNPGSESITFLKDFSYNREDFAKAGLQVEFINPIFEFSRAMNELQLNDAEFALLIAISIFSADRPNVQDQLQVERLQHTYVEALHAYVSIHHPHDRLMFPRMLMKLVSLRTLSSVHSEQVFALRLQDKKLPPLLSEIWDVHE
Put plainly: Agonist activity at GAL4 fused LXRalpha (unknown origin) transfected in CHOK1 cells after 24 hrs by luciferase reporter gene assay.

In series [15] the test system is Mus musculus. The experiment in a line: Upregulation of SREBP-1c expression in LDL receptor knock-out mouse liver at 1 mg/kg, po relative to control. Type of series: functional.
Series [16] deals with Mus musculus. Put plainly: Antiatherosclerosis activity in LDL receptor knock out mouse model assessed as increase in TG levels at 1 mg/kg, po by HPLC analysis relative to control. Type of series: functional.
Series [17] relates to Mus musculus. The experiment in a line: Upregulation of SREBP-1c expression in LDL receptor knock-out mouse liver at 3 mg/kg, po relative to control. The class given is functional.
The subject of series [18] is Mus musculus. Put plainly: Antiatherosclerosis activity in LDL receptor knock out mouse model assessed as increase in TG levels at 3 mg/kg, po by HPLC analysis relative to control. The class given is functional.

Turning to `CCCc1cc(C(O)(C(F)(F)F)C(F)(F)F)ccc1Oc1ccc(C(=O)CN2C(=O)NC(C)(c3ccc(OC(C)C)cn3)C2=O)c(O)c1` (single isomer, unassigned; (-)), the Activity in the series on Mus musculus [1] is on record as 102%; in the series with Mus musculus [3], 97%; in the series with Mus musculus [4] it was 59%; in the series on Mus musculus [7], 115%; in the series on Mus musculus [9], 108%; in the series with Mus musculus [10], 62%. Also, the Activity in the series on Mus musculus [12] is 116%; in the series on Mus musculus [13], 111%; with Mus musculus [16], 152%; in the series with Mus musculus [18], 166%. Further, the AUC at 24 h in [2] came out at 3030 ng·h/mL. The “fold change (FC)” value with Mus musculus [5] is given as 3; in the series on Mus musculus [11], 2.1; in the series with Mus musculus [15], 1.2; in the series with Mus musculus [17], 1.5. Further, the Cmax in series [6] worked out at 503 ng/mL. For the same compound, the results for the EC50 in series [8] and in series [14] were 7 nM and 200 nM, respectively.

By AUC is commonly meant the area under the concentration-time curve, a measure of exposure. A word on the Cmax: it is the highest concentration seen after dosing. Broadly, the EC50 is the midpoint of the concentration-response curve.
